Reference: patent US9365572B2, “PI3K and/or mTOR inhibitor” (XUANZHU PHARMA CO., LTD., priority 2012, dated 2016)

Tests used:
[1] = biological target: Adenosine A1 (Homo sapiens (Human), UniProt P30542); assay: Radioligand binding assay No. 200510; details: test substance 10 μM, read-out: Inhibitory rate (%), Adenosine A1
[2] = biological target: Histamine H2 (Homo sapiens (Human), UniProt P25021); assay: Radioligand binding assay No. 239710; details: test substance 10 μM, read-out: Inhibitory rate (%), Histamine H2
Histamine H2, sequence (P25021 whole entry): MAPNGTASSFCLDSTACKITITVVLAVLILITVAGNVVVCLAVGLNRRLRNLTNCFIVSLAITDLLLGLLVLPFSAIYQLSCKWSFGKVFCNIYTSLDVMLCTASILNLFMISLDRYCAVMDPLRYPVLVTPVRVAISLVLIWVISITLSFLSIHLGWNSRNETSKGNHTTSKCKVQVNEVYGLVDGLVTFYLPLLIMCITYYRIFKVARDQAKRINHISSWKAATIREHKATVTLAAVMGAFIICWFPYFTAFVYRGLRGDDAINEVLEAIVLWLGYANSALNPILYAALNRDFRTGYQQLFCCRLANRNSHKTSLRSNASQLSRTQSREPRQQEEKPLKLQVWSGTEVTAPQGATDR

[3] = biological target: Adrenergic α1D (Homo sapiens (Human), UniProt P25100); assay: Radioligand binding assay No. 203400; details: test substance 10 μM, read-out: Inhibitory rate (%), Adrenergic α1D
Adrenergic α1D, sequence (P25100 whole entry): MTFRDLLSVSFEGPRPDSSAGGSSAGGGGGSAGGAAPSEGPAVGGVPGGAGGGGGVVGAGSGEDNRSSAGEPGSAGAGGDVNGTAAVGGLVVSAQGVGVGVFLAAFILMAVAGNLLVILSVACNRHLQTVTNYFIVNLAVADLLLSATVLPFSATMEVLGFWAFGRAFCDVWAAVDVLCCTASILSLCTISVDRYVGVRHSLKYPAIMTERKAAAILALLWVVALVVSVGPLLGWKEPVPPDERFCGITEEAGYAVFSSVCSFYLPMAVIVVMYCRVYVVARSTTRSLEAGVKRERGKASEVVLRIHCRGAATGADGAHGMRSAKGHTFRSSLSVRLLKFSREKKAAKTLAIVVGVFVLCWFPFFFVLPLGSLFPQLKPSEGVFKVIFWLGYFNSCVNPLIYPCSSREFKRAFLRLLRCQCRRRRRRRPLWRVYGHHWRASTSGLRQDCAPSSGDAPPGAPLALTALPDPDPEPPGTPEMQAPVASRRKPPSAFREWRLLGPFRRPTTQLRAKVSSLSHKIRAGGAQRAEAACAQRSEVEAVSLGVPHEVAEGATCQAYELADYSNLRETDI

[4] = biological target: Calcium Channel N-Type (Rattus norvegicus (Rat), UniProt Q02294); assay: Radioligand binding assay No. 216000; details: test substance 10 μM, read-out: Inhibitory rate (%), Calcium Channel N-Type
[5] = test system: Rolipram; assay: Radioligand binding assay No. 270000; details: test substance 10 μM; rat
[6] = biological target: Estrogen ERα (Homo sapiens (Human), UniProt P03372); assay: Radioligand binding assay No. 226010; details: test substance 10 μM, read-out: Inhibitory rate (%), Estrogen ERα
Estrogen ERα, sequence (P03372 whole entry): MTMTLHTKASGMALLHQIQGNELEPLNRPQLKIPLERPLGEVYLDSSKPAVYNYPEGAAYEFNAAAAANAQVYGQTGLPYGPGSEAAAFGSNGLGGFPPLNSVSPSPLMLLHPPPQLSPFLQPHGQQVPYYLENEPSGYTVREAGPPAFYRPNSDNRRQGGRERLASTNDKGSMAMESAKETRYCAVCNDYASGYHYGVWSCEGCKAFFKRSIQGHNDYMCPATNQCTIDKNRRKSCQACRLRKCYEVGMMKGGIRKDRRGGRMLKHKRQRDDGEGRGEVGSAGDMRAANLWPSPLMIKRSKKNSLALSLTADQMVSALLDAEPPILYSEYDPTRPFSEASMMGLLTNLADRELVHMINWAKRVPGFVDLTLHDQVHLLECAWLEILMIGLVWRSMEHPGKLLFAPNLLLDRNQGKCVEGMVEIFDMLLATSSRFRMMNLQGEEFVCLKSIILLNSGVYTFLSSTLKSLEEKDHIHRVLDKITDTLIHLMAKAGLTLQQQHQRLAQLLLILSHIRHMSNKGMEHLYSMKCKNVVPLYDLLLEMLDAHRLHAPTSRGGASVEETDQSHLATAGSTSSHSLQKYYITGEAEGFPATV

[7] = biological target: Opiate μ(OP3, MOP) (Homo sapiens (Human), UniProt P35372); assay: Radioligand binding assay No. 260410; details: test substance 10 μM, read-out: Inhibitory rate (%), Opiate μ(OP3, MOP)
[8] = biological target: Endothelin ETA (Homo sapiens (Human), UniProt P25101); assay: Radioligand binding assay No. 224010; details: test substance 10 μM, read-out: Inhibitory rate (%), Endothelin ETA
Endothelin ETA, sequence (P25101 21-427): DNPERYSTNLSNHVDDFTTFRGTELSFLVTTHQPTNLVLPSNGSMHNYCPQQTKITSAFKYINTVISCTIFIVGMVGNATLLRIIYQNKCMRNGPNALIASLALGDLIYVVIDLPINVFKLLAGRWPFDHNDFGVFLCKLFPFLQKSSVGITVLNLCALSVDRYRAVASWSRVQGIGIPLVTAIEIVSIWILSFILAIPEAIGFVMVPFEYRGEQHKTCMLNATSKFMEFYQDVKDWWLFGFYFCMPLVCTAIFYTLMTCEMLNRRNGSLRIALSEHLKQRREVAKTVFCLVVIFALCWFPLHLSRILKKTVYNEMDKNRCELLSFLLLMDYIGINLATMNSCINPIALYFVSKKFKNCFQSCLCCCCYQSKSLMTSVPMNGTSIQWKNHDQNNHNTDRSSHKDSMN

[9] = biological target: Adenosine A3 (Homo sapiens (Human), UniProt P0DMS8); assay: Radioligand binding assay No. 200720; details: test substance 10 μM, read-out: Inhibitory rate (%), Adenosine A3
Adenosine A3, sequence (P0DMS8 whole entry): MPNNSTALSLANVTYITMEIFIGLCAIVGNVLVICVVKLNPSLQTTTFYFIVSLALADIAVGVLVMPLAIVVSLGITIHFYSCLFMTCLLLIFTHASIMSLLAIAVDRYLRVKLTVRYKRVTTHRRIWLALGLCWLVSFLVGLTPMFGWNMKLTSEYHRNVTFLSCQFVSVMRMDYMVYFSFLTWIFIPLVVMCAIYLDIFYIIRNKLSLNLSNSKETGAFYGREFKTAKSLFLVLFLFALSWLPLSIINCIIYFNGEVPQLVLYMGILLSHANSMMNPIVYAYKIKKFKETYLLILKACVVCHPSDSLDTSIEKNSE

[10] = biological target: Dopamine D3 (Homo sapiens (Human), UniProt P35462); assay: Radioligand binding assay No. 219800; details: test substance 10 μM, read-out: Inhibitory rate (%), Dopamine D3
Dopamine D3, sequence (P35462 whole entry): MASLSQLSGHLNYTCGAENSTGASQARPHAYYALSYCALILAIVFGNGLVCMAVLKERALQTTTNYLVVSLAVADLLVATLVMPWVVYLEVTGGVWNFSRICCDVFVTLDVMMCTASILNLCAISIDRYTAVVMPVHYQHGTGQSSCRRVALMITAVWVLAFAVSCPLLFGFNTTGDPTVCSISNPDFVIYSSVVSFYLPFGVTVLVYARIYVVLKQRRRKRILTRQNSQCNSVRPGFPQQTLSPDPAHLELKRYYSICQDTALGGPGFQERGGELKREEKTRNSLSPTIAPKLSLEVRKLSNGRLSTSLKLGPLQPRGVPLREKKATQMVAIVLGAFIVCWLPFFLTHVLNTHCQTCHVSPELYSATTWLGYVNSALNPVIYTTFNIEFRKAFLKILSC

[11] = test system: Thyroid Hormone; assay: Radioligand binding assay No. 285900; details: test substance 10 μM; rat
[12] = biological target: Adrenergic α1B (Rattus norvegicus (Rat), UniProt P15823); assay: Radioligand binding assay No. 203200; details: test substance 10 μM, read-out: Inhibitory rate (%), Adrenergic α1B
Adrenergic α1B, sequence (P15823 whole entry): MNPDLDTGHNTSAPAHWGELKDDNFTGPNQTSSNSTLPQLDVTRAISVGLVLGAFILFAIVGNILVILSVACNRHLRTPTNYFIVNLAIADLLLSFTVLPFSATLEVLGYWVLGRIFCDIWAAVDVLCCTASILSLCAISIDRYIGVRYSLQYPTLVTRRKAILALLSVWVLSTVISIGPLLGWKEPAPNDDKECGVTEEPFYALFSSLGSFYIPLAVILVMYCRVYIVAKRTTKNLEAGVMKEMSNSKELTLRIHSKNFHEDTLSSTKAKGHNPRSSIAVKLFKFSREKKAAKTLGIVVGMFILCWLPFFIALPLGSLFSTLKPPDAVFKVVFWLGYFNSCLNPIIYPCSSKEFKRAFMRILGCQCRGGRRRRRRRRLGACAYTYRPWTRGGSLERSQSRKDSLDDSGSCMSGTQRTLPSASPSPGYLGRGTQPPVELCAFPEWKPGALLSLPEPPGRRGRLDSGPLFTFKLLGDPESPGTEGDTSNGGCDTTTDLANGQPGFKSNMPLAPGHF

[13] = biological target: Leukotriene, Cysteinyl CysLT1 (Homo sapiens (Human), UniProt Q9Y271); assay: Radioligand binding assay No. 250460; details: test substance 10 μM, read-out: Inhibitory rate (%), Leukotriene, Cysteinyl CysLT1
[14] = test system: Purinergic P2X; assay: Radioligand binding assay No. 268700; details: test substance 10 μM; rabbit
[15] = biological target: Androgen (Testosterone) AR (Rattus norvegicus (Rat), UniProt P15207); assay: Radioligand binding assay No. 285010; details: test substance 10 μM, read-out: Inhibitory rate (%), Androgen (Testosterone) AR
Androgen (Testosterone) AR, sequence (P15207 whole entry S389L): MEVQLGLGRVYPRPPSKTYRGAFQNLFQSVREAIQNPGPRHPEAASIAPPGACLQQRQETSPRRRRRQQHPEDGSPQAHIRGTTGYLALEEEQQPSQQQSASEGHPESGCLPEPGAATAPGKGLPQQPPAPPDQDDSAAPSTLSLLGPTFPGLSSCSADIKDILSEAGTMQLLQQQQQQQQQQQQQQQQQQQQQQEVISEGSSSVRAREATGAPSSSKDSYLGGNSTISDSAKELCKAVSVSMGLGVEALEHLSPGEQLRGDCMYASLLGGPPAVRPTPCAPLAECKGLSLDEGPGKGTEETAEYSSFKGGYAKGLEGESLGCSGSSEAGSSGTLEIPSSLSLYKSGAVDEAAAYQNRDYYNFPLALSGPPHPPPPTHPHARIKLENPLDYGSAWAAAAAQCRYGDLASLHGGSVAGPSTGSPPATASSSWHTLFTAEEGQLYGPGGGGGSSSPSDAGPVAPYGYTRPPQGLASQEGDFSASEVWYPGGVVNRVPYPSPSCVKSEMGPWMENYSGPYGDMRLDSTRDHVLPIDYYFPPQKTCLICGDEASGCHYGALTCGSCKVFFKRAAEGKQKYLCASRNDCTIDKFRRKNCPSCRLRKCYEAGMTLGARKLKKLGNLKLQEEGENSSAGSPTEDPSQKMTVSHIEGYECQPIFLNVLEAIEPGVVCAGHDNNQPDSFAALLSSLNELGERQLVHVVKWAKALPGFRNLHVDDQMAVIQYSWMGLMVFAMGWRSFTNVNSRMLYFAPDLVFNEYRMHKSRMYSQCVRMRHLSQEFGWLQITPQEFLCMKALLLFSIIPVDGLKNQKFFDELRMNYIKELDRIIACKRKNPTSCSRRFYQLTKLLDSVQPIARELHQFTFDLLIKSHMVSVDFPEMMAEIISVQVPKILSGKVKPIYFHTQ

[16] = biological target: Histamine H1 (Homo sapiens (Human), UniProt P35367); assay: Radioligand binding assay No. 239610; details: test substance 10 μM, read-out: Inhibitory rate (%), Histamine H1
Histamine H1, sequence (P35367 whole entry): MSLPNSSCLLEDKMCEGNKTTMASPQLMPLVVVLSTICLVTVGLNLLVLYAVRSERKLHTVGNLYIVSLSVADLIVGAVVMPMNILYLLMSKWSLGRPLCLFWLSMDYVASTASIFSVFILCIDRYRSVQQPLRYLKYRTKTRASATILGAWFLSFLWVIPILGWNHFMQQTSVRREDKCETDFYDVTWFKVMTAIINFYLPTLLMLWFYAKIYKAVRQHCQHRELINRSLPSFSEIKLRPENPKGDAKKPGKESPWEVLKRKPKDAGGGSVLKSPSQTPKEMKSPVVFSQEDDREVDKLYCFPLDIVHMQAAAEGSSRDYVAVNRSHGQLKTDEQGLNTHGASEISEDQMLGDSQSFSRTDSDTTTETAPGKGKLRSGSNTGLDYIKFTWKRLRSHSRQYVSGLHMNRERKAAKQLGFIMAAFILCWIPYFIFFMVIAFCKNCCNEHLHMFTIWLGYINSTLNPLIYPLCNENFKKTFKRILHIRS

[17] = test system: SKOV-3; assay: In vitro cytological inhibitory activity (XTT); type: cell-based; details: Homo sapiens, SK-OV-3, 72 hrs
Protocol: SKOV-3: Human ovarian cancer cell line;
1. Preparation of agents and compounds:
• 1.1 Preparation of phosphoric acid buffering solution (PBS): 8 g NaCl, 0.2 g KCl, 1.44 g Na2HPO4 and 0.24 g KH2PO4 were weighed and added to 800 mL ultrapure water. The mixture was adjusted to pH=7.4, and ultrapure water was added to the metered volume of IL. Then the autoclaving was conducted for 20 mins. • 1.2 Preparation of XTT detection working solution: 100 mg (2,3-Bis-(2-methoxy-4-nitro-5-sulfophenyl)-2H-tetrazolium-5-carboxanilide); 2,3-bis(2-methoxy-4-nitro-5-sulfophenyl)-5-[(phenylamino)carbonyl]-2H-tetrazolium hydroxide (XTT) powder was weighed, and dissolved under protection from light 300 mL of phenol red-free and serum-free RPMI1640 culture, which had been warmed up to 50° C. The resulting mixture was filtered, packaged and used immediately or in one week. The complete process was conducted under protection from light. • 1.3 Preparation of the test compound • Preparation of the stock solution of the test compound: The test compound powder was dissolved in DMSO in a concentration of 10 mM. • Preparation of the gradiently diluted solution of the test compound: 10 mM of the stock solution of the test compound was successively and gradiently diluted with DMSO by 4 folds for 10 concentrations. […]

Adenosine A1, sequence (P30542 whole entry): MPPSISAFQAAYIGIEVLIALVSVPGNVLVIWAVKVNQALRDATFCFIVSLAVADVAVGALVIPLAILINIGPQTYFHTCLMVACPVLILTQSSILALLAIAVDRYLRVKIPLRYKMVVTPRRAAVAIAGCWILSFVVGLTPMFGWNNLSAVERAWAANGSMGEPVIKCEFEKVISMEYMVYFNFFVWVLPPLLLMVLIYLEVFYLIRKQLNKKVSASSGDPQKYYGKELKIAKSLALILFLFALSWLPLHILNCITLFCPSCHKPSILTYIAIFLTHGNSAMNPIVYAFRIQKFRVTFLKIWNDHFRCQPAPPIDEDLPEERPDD

Structure (SMILES) | inhibition at 10 µM [1] [%] | inhibition at 10 µM [2] [%] | inhibition at 10 µM [3] [%] | inhibition at 10 µM [4] [%] | Inhibitory rate (%), Rolipram [5] [%] | inhibition at 10 µM [6] [%] | inhibition at 10 µM [7] [%] | inhibition at 10 µM [8] [%] | inhibition at 10 µM [9] [%] | inhibition at 10 µM [10] [%] | Inhibitory rate (%), Thyroid Hormone [11] [%] | inhibition at 10 µM [12] [%] | inhibition at 10 µM [13] [%] | Inhibitory rate (%), Purinergic P2X [14] [%] | inhibition at 10 µM [15] [%] | inhibition at 10 µM [16] [%] | IC50 [17] [nM]
Nc1ccc(-c2ccc3ncc4c(=O)[nH]c(=O)n(-c5cccc(C(F)(F)F)c5)c4c3n2)cn1 [Compound 5, 9-(6-aminopyridin-3-yl)-1-(3-(trifluoromethyl)phenyl)pyrimido[5,4-c][1,5]naphthyridine-2,4(1H,3H)-dione] | 20 | -2 | 9 | -22 | 20 | 17 | 2 | 3 | 11 | 15 | 9 | 21 | -1 | 9 | 30 | 10 | 
O=c1[nH]c(=O)n(-c2cccc(C(F)(F)F)c2)c2c1cnc1ccc(-c3cnc4[nH]ccc4c3)nc12 [Compound 30, 9-(1H-pyrrolo[2,3-b]pyridin-5-yl)-1-(3-(trifluoromethyl)phenyl)pyrimido[5,4-c][1,5]naphthyridine-2,4(1H,3H)-dione] |  |  |  |  |  |  |  |  |  |  |  |  |  |  |  |  | 57.2
